A short description of data set [1]: Intrinsic clearance (Cli), human liver microsomes. As to conditions: 0.5 µM, scaling factor 40 mg microsomal protein per g liver. The data set is classed as in vitro ADME. As for the experimental part:
(§1) Test compound (0.5 µM) was incubated with female CD1 mouse, male rat Han Wistar and pooled human liver microsomes (Xenotech^TM; 0.5 mg/mL 50 mM potassium phosphate buffer, pH7.4) and the reaction started with addition of excess NADPH (8 mg/mL 50 mM potassium phosphate buffer, pH7.4). Immediately, at time zero, then at 3, 6, 9, 15 and 30 min an aliquot (50 µL) of the incubation mixture was removed and mixed with acetonitrile (100 uL) to stop the reaction. An internal standard was added to all samples, the samples centrifuged to sediment precipitated protein and the plates then sealed prior to UPLC-MSMS analysis (Xevo TQ-S Micro, Waters^TM). XLfit (IDBS, UK) was used to calculate the exponential decay and consequently the rate constant (k) from the ratio of peak area of test compound to internal standard at each timepoint. The rate of intrinsic clearance (CLi) of each test compound was then calculated using the following calculation:1 CLi(mL/min/gliver)=kxVxMicrosomalproteinyield Where V (mL/mg protein) is the incubation volume/mg protein added and microsomal protein yield is taken as 48 mg, 46 mg and 40 mg protein/g liver for mouse, rat and human, respectively. Verapamil (0.5 µM) was used as a positive control to confirm acceptable assay performance.
On the technique in general: Liver microsomes are vesicles of endoplasmic reticulum, rich in cytochrome P450 enzymes.

Data set [2] in a line: Intrinsic clearance (Cli), mouse liver microsomes. As to conditions: 0.5 µM, scaling factor 48 mg microsomal protein per g liver. The data set is classed as in vitro ADME. As for the experimental part:
as §1

Data set [3] is described as follows: Intrinsic clearance (Cli), rat liver microsomes. Type of data set: in vitro ADME. To be noted: 0.5 µM, scaling factor 46 mg microsomal protein per g liver. As for the experimental part:
as §1

In data set [4] the target is T1, GSK3β-HiBiT (GSK3β-HiBiT KI HEK293 cells) (Homo sapiens, UniProt P49841).
T1 construct: we generated endogenously tagged GSK3β-HiBiT knock-in (KI) HEK293 cells; endogenous in cells; host or cells: GSK3β-HiBiT knock-in HEK293 cells (CRISPR/Cas9, single-cell clone)
T1 sequence (P49841 whole entry): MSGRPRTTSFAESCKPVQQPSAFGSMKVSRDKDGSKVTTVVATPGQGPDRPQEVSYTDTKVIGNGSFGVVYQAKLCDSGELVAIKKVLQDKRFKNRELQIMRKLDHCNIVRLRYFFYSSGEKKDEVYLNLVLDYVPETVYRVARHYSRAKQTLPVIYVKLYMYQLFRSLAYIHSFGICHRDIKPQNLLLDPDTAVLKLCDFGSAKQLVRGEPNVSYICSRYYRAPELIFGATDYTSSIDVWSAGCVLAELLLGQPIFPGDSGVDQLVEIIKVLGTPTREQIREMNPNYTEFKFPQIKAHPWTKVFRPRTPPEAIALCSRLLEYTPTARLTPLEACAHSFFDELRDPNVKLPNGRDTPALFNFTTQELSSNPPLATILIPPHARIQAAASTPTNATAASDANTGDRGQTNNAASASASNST
Kind of data set: HiBiT lytic degradation assay / high-throughput screen, 24 h. Type of data set: cell-based. As to conditions: 24 h treatment. As for the experimental part:
Crude compounds were assumed to be 10 mM concentration in DMSO and after generating libraries directly used in biological tests in degradation screens. Stock solutions were serially diluted into white bottom opaque 384-well plates (Perkin Elmer) using Echo500 (Labcyte) and DMSO was backfilled to maintain same DMSO content in each well for all concentrations. […] HiBiT lytic assay buffer (Promega) prepared according to the manufacturer’s instructions and added onto each well using Multidrop^TM Combi reagent dispenser. Luminescence signal was measured on PheraStar plate reader (BMG) and obtained data normalised to DMSO conditions using Excel and further analysed using GraphPad Prism (v10.1.2) and degradation curves were generated using 4-parameter non-linear regression fit to calculate DC50 and Dmax values. Data points associated with concentrations displaying a hook effect were excluded prior to DC50 and Dmax calculation.
(The HiBiT peptide binds its large partner to form an active luciferase.)

Data set [5] relates to HEK293 cells phosphoproteome. Kind of data set: Phosphoproteomics in HEK293 cells. Details: scale not given here. To be noted: phosphosite abundance difference. Type of data set: cell-based, human. As for the experimental part: IMAC beads were prepared from Ni-NTA (nitrilotriacetic acid) superflow agarose beads. The nickel was stripped with 100 mM EDTA and incubated in an aqueous solution of 10 mM iron (III) chloride (FeCl3). Dried peptide fractions were reconstituted to a concentration of 0.5 μg/μL in 80% ACN/0.1% TFA. Peptide mixtures were enriched for phosphorylated peptides with 5 μL IMAC beads for 30 min with end-to-end rotation.
Enriched IMAC beads were loaded on Empore C18 silica-packed stage tips. Stage tips were equilibrated with acetonitrile followed by 50% ACN/0.1% FA then 1% FA. The beads with enriched peptides were loaded onto C18 stage tips and washed with 80% ACN/0.1% TFA. Phosphorylated peptides were eluted from IMAC beads with 500 mM dibasic sodium phosphate, pH 7.0. These peptides were washed with 1% FA before elution using 50% acetonitrile in 0.1% FA. The peptides were then dried by SpeedVac and stored at −20 °C until mass spectrometry analysis. The dried phosphopeptides were reconstituted in 0.1% formic acid and analyzed on an Orbitrap Ascend mass spectrometer coupled to a Thermo Fisher Scientific Vanquish Neo UHPLC. […] The total run time was set to 155 min. A survey full scan MS (from m/z 350–1500) was acquired in the Orbitrap at a resolution of 120,000 at 200 m/z. The most intense ions with charge state ≥2 were isolated and fragmented using higher collision dissociation (HCD) fragmentation, with 30% normalised collision energy, and detected at a mass resolution of 50,000 at 200 m/z. The isolation window was set at 1.6. The phosphoproteomics raw data were searched using SEQUEST HT search engines with Proteome Discoverer 3.0 (Thermo Fisher Scientific). The following parameters were used for searches: Precursor mass tolerance 10 ppm, fragment mass tolerance 0.02, enzyme: trypsin, […], fixed modification: carbamidomethylation of cysteine residues and TMT of lysine and N-terminal, dynamic modification: oxidation of methionine and phosphorylation of serine, threonine and tyrosine. The data were filtered for 1% PSM and peptide level. A two-tailed t-test with 250 randomisations was performed in Perseus software (v1.6.15.0) to assess statistical significance between groups. The resulting data were visualised as a volcano plot using GraphPad Prism (v10.1.2).

Data set [6] has as its system GSK3β Ser9 and GSK3β Tyr216 phosphorylation. The experiment in a line: GSK3β phosphorylation (Ser9, Tyr216) immunoblot in HEK293 cells. Type of data set: cell-based, human. To be noted: for impact on GSK3β Ser9 or GSK3β Tyr216 phosphorylation prior to degradation: 10 nM 24, 27, 10 nM and 1 µM 29, 30 min. As for the experimental part: HEK293, HAP1, HAP1 CRBN KO and SH-SY5Y cells were plated in either 6 cm plates or 6-well plates at varying densities (0.5–0.7 × 10^6 cells per plate or wells), and MEF cells were plated in 10 cm plates (1–1.2 × 10^6 cells per plate) depending on experimental set up in respective culturing condition as described above. Stock solutions of compounds were prepared as 10 mM in DMSO (Sigma–Aldrich). Working dilutions were made up fresh in DMSO and culturing media or differentiation media was refreshed prior to any compound treatments. For mode of action studies, cells were pre-treated with inhibitors for 2 h: 1 µM MG132 (Merck, 474790-5 mg), 1 µM MLN4924 (Merck, 5054770001) or 1 µM GSK3 inhibitor (compound 29), before treating with PROTACs for 2, 4 or 24 h as indicated in figure legends. Cells were washed twice with ice-cold PBS (Gibco), harvested in PBS and pelleted, cells were resuspended in RIPA buffer supplemented with complete EDTA-free protease inhibitor cocktail (Roche,11873580001, 1/10 mL) and phosSTOP (Roche, 04906845001, 1 tablet/10 mL) for 20 min lysis on ice then cleared via centrifugation at 16,000 × g, 4 °C for 20 min. SH-SY5Y cells were lysed in 500 µL ice-cold lysis buffer (25 mM Tris-HCl (pH 7.4), 50 mM NaF, 100 mM NaCl, 1 mM EDTA, 4 mM EGTA, 1% (v/v) Triton-X-100, 0.09% (w/v) sucrose, 10 mM sodium pyrophosphate, 10 mM sodium vanodate, 0.1% (v/v) β-mercaptoethanol, supplemented with complete mini protease inhibitor tablet (Sigma; 1 tablet/ 10 mL buffer)). Lysates were flash frozen, thawed and centrifugated at 16,000 × g, 4 °C for 20 min. Following clearance of lysates, protein concentrations were determined by the BCA assay (Fisher Scientific, 23225) or Bradford assay (Bio-rad). Five to thirty micrograms of protein from lysates were prepared in 4×LDS buffer (Thermo Fisher) and 50 mM dithiothreitol (DTT) denaturated at 95 °C for 5 min. Proteins were separated on NuPAGE 4–12% Bis-Tris gels (Invitrogen) or 4–12% Novex Tris-glycine gels (Invitrogen) in MOPS buffer (Invitrogen) and transferred onto nitrocellulose membranes using an iBlot3 system (Thermo Fisher Scientific) or nitrocellulose membranes (Cytiva) in cold tris-glycine-methanol buffer (25 mM Tris (pH 7.5), 192 mM glycine, 20% (v/v) methanol). Membranes were blocked with either 5% fat-free milk (Marvel) or 1% (w/v) BSA (Sigma) in TBS-T (20 mM Tris (pH 7.5), 150 mM NaCl, 0.1% (v/v) Tween-20 (Sigma)) at room temperature for 30 min, or in the case of SH-SY5Y assays, 1 h, before incubating with primary antibodies overnight at 4 °C on a rocker. […]
(Immunoblotting shows a protein as a band on a membrane.)

The source of these data is paper PMC12501029, “Discovery of a CNS active GSK3 degrader using orthogonally reactive linker screening” (Nature Communications, 2025).

Turning to `O=C1CCC(NC(=O)c2ccc(CN3CCN(CCCCCc4cn(-c5ccc(-c6cn7nccc(C(=O)Nc8cnccc8N8CCOCC8)c7n6)cc5)nn4)CC3)cc2F)C(=O)N1` (centres unmarked) [compound 21], in data set [1], the “Scaled Microsomal Stability HuClint” value was found to be 27 ml/min/g liver. Moreover, in data set [2], the “Scaled Microsomal Stability MuClint” value is given as 15 ml/min/g liver. Also, the “Scaled Microsomal Stability RatClint” value in data set [3] came out at 2.6 ml/min/g liver.

With `O=C1CCC(NC(=O)c2ccc(CN3CCN(CCCc4cn(-c5ccc(-c6cn7nccc(C(=O)Nc8cnccc8N8CCOCC8)c7n6)cc5)nn4)CC3)cn2)C(=O)N1` (centres unmarked) [compound 23], the Dmax (in general, the largest share of the target that was removed) in data set [4] (HEK293, crude mixture, stock assumed 10 mM) came out at 81%; in data set [4] (HEK293, pure (resynthesised, HPLC purified) compound), 73%.

Turning to `CN1C(=O)CCN(c2nn(C)c3cc(CN4CCN(Cc5ccc(-c6cn(-c7ccc(-c8cn9nccc(C(=O)Nc%10cnccc%10N%10CCOCC%10)c9n8)cc7)nn6)nc5)CC4)ccc23)C1=O` [compound 27], in data set [5] (27 vs DMSO, MOESM7), the “Difference, E2F8 A0AVK6 1xPhospho [S68(99.5)]” value was -0.2137; the “Difference, E2F8 A0AVK6 1xPhospho [S417(100)]” value amounted to 0.1148; the “Difference, GATD3B A0A0B4J2D5 1xPhospho [S98(100)]” value turned out to be 0.02358; the “Difference, SIK1B A0A0B4J2F2 1xPhospho [S575(100)]” value is given as 0.09328. Further, the “Difference, UBA6 A0AVT1 1xPhospho [S36(100)]” value in data set [5] (27 vs DMSO, MOESM7) was 0.2252. Also, in data set [5] (27 vs DMSO, MOESM8), the “Difference, A0JNW5 1xPhospho [S414(100)] UHRF1BP1L” value worked out at 0.1475; the “Difference, A0JNW5 1xPhospho [S953(99.7)] UHRF1BP1L” value was -0.0085; the “Difference, A0MZ66 1xPhospho [S506(100)] SHTN1” value is 0.1099; the “Difference, A0MZ66 1xPhospho [S512(100)] SHTN1” value is listed as 0.06022. For the same compound, the “Difference, A0MZ66 1xPhospho [T537(100)] SHTN1” value in data set [5] (27 vs DMSO, MOESM8) was -0.2879. Moreover, in data set [5] (vs DMSO, MOESM9), the “Difference, Q5PRF9 1xPhospho [S592(100)] SAMD4B” value was 0.05893; the “Difference, Q8NEM7 1xPhospho [S437(100)] SUPT20H” value is 0.2274; the “Difference, Q96KQ7 1xPhospho [S140(100)] EHMT2” value was 0.333; the “Difference, Q15398 1xPhospho [S725(100)] DLGAP5” value was found to be 0.1236. In addition, in data set [5] (vs DMSO, MOESM9), the “Difference, Q15911 1xPhospho [S426(100)] ZFHX3” value worked out at 0.1806. The “impact on GSK3β Ser9 or GSK3β Tyr216 phosphorylation prior to degradation” value in data set [6] is “no impact observed”.

Regarding `O=C(Nc1cnccc1N1CCOCC1)c1ccnn2cc(-c3ccc(Br)cc3)nc12` [compound 29], the “impact on GSK3β Ser9 or GSK3β Tyr216 phosphorylation prior to degradation” value in data set [6] is “no impact observed”. For the same compound, the “phosphorylation of Tyr216 after 2 h” value in data set [6] (1 µM, 2 h) is given as “some reduction in phosphorylation of Tyr216”.
